Measured values published in patent US20200261391A1, “METHODS OF REDUCING THE RISK OF A CARDIOVASCULAR EVENT IN A STATIN-TREATED SUBJECT BY INCREASING SERUM AND PLASMA EPA AND DPA LEVELS” (Amarin Pharmaceuticals Ireland Limited, priority 2019, published 2020).

Tested on: patients with elevated triglyceride levels on statin therapy
Experiment: REDUCE-IT recurrent and total ischemic events (Example 2; Andersen-Gill and Wei-Lin-Weissfeld models)
Assay type: in vivo, human
Details: for total key secondary endpoint events, HR / total key secondary endpoint events, number: without adjustment for stratification differences
Excerpt: The following study was a multi-center, placebo-controlled clinical trial the details of which are described above in Example 1, the REDUCE-IT design. […] Randomization was stratified by cardiovascular risk cohort (i.e., secondary or primary prevention), use of ezetimibe, and by geographic region.
The primary outcome for the study was total recurrent events consisting of the composite of cardiovascular death, nonfatal myocardial infarction, nonfatal stroke, coronary revascularization, or hospitalization for unstable angina. Recurrent event analyses were also performed for the key secondary endpoint, a composite of cardiovascular death, non-fatal myocardial infarction, or non-fatal stroke. For each of these composite endpoints, the effects of icosapent ethyl in the secondary and primary prevention strata were examined separately.
Demographic and baseline disease characteristics are presented using frequencies and percentages for categorical variables and medians with interquartile ranges for continuous variables. Between treatment group comparisons were derived using the chi-square test for categorical variables and Wilcoxon rank test for continuous variables. All clinical endpoint events used in the efficacy analyses were adjudicated by an independent Clinical Endpoint Committee (CEC) who were blinded to the treatment assignment. Since the primary efficacy endpoint was the time from randomization to the first occurrence of any component of the composite endpoint, and recurrence of such events within each patient is possible, a pre-specified analysis using a Cox proportional-hazard with the counting-process formulation of Andersen and Gill was performed to model the first and all recurrent cardiovascular events. Hazard ratios (HR) and corresponding 95% confidence intervals (CI) are reported from this model. In addition, as a marginal model and an extension of survival models based on the Cox proportional hazard model, the modified Wei-Lin-Weissfeld (WLW) method for analysis of recurrent events in the presence of deaths was carried out as a supportive analysis. In addition, as pre-specified, a recurrent event analysis using the Andersen-Gill and Wei-Lin-Weissfeld methods were carried out for the individual primary event components other than CV death. Though not pre-specified, additional recurrent event analyses were performed for the key secondary endpoint, which is a composite of CV death, non-fatal MI, or non-fatal stroke, and for the primary endpoint and the key secondary endpoint in the primary and secondary prevention strata to explore further the consistency of clinical benefit of icosapent ethyl. In subgroup analyses of the two cardiovascular risk strata (i.e., primary and secondary prevention), site-level discrepancies in cardiovascular risk group assignment occurring at entry and detected during the study (1.8%) were adjusted to conform with documented medical history data prior to randomization. All efficacy analyses were performed according to the intention-to-treat principle. All tests were based on a 2-sided nominal significance level of 5% with no adjustments for multiple comparisons.

[1] = Wei-Lin-Weissfeld model, vs placebo
[2] = per 100 patients treated for five years

## CC/C=C\C/C=C\C/C=C\C/C=C\C/C=C\CCCC(=O)OCC [icosapent ethyl, eicosapentaenoic acid ethyl ester]
Example 2
  first events, reduction: 25%
  second events, reduction: 28%
  third or more events, reduction: 50%
  total events for primary composite efficacy outcome, relative risk reduction: 32%
[1]
  first occurrence of primary composite endpoint, HR: 0.75
  second occurrence of primary composite endpoint, HR: 0.72
In vivo
  additional primary endpoint events, total reduction vs placebo (number): 179
  first primary endpoint events, total reduction vs placebo (number): 196
  second primary endpoint events, total reduction vs placebo (number): 164
Overall trial, placebo 1,724
  total primary endpoint events, number: 1,185
overall, placebo 861
  total key secondary endpoints, number: 590
overall, vs placebo
  total key secondary endpoints, HR: 0.71
[2]
  cardiovascular deaths prevented: 1
  coronary revascularizations prevented: 8
  episodes of unstable angina prevented: 2
  myocardial infarctions prevented: 4
  strokes prevented: 1
Placebo 360
  additional primary endpoint events, number: 131
Placebo 463
  second primary endpoint events, number: 299
Placebo 901
  first primary endpoint events, number: 705
Primary prevention stratum
  total key secondary endpoints, HR: 0.71
Primary prevention stratum, adjusted stratification
  total primary endpoint events, HR: 0.79
Primary prevention stratum, adjusted stratification, placebo 256
  total primary endpoint events, number: 197
Primary prevention stratum, without adjusting for stratification differences
  total primary endpoint events, HR: 0.86
Primary prevention stratum, without adjusting for stratification differences, placebo 263
  total primary endpoint events, number: 221
Primary prevention
  total key secondary endpoint events, HR: 0.78
Primary prevention, placebo 142
  total key secondary endpoint events, number: 112
Secondary prevention stratum
  total key secondary endpoints, HR: 0.70
  total key secondary endpoint events, HR: 0.69
Secondary prevention stratum, adjusted stratification
  total primary endpoint events, HR: 0.66
Secondary prevention stratum, adjusted stratification, placebo 1,468
  total primary endpoint events, number: 988
Secondary prevention stratum, without adjusting for stratification differences
  total primary endpoint events, HR: 0.65
Secondary prevention stratum, without adjusting for stratification differences, placebo 1,461
  total primary endpoint events, number: 964
Secondary prevention stratum, placebo 671
  total key secondary endpoint events, number: 478
Vs placebo, overall trial
  total primary endpoint events, HR: 0.68
